Source: patent US12691156B2, “Prebiotic compositions and method for promoting growth of Hafnia alvei by using the same” (TCI CO., LTD., priority 2022, dated 2026)

Test system: Hafnia alvei BCRC10906
Assay: Influence of prebiotic compositions in different combinations on Hafnia alvei growth (OD600, Embodiment 4)
Type: cell-based
Conditions: for ability to promote the growth of Hafnia alvei (in words) / Relative bacterial count (%): 1 g formula in 10 mL BHI, 24 hours; for Absorbance (OD600): 10 mL BHI medium containing 1 g formula, anaerobic culture 37° C. 24 hours, control group 0.078 ± 0.039; for Relative bacterial count (%): converted from OD600, control group = 100 ± 50
Source text: The groups were divided into a control group and 11 experimental groups. The experimental groups included 6 single-formula experimental groups and 5 complex-formula experimental groups, namely a single-formula experimental group to a single-formula experimental group, and a complex-formula experimental group to a complex-formula experimental group. The adopted liquid medium was a brain heart infusion broth (BHI, hereinafter referred to as the BHI medium, and purchased from DifcoTM). The adopted test strains were Hafnia alvei BCRC10906 purchased from Bioresource Collection and Research Center (BCRC). Each group is shown as Table 5. Control group: No prebiotics were added, and the experimental medium was 10 ml of the BHI medium. 6 single-formula experimental groups: A single-formula experimental group containing erythritol (purchased from SWEET TOWN ENTERPRISE CORP.), a single-formula experimental group containing arabinose (purchased from […] Co., Ltd.), a single-formula experimental group containing Arabic gum (purchased from Buildmore Enterprise Co., Ltd.), a single-formula experimental group containing fructooligosaccharide (purchased from Panel Japan Co., Ltd.), a single-formula experimental group containing soybean peptide powder (purchased from FUJI OIL Co. Ltd.), and a single-formula experimental group containing the black tea ferment prepared in Embodiment 1. The experimental medium of each group was 10 ml of the BHI medium containing 1 g of prebiotics (namely, erythritol, arabinose, Arabic gum, fructooligosaccharide, soybean peptide powder, the black tea ferment prepared in Embodiment 1. The 6 single-formula experimental groups were also called single-ingredient formulas to [6]). 5 complex-formula experimental groups: A complex-formula experimental group containing the black tea ferment prepared in Embodiment 1 and the soybean peptide powder; a complex-formula experimental group containing the black tea ferment prepared in Embodiment 1, the soybean peptide powder and erythritol; a complex-formula experimental group containing the black tea ferment prepared in Embodiment 1, the soybean peptide powder and fructooligosaccharide; a complex-formula experimental group containing the black tea ferment prepared in Embodiment 1, the soybean peptide powder and arabinose; and a complex-formula experimental group containing the black tea ferment prepared in Embodiment 1, the soybean peptide powder and Arabic gum. The weight ratio of the prebiotic compositions of the complex-formula experimental groups was 1:1 or 1:1:1. The experimental medium of each group was 10 ml of the BHI medium containing 1 g of prebiotic composition (namely, a combination of 0.5 g of the black tea ferment prepared in Embodiment 1 and 0.5 g of the soybean peptide powder, a combination of about 0.33 g of the black tea ferment prepared in Embodiment 1, about 0.33 g of the soybean peptide powder and about 0.33 g of erythritol, a combination of about 0.33 g of the black tea ferment prepared in Embodiment 1, about 0.33 g of the soybean peptide powder and about 0.33 g of fructooligosaccharide , a combination of about 0.33 g of the black tea ferment prepared in Embodiment 1, about 0.33 g of the soybean peptide powder and about 0.33 g of arabinose, and a combination of about 0.33 g of the black tea ferment prepared in Embodiment 1, about 0.33 g of the soybean peptide powder and about 0.33 g of Arabic gum; and the 5 complex-formula experimental groups are also referred to as complex-ingredient formulas to [5]). [table] Firstly, 5% (v/v) of Hafnia alvei was inoculated to the BHI medium, and activated in an anaerobic operation box (5% of hydrogen, 10% of carbon dioxide and 85% of nitrogen) at 37° C. for 24 hours to obtain an experimental bacterial solution. […]

Row | Compound | ability to promote the growth of Hafnia alvei (in words) | Absorbance (OD600) | Absorbance (OD600) (listed as single-formula experimental group [1]) | Relative bacterial count (%) | Absorbance (OD600) (listed as single-formula experimental group [2])
1 | OC[C@@H](O)[C@@H](O)CO [Single-formula experimental group [1], Erythritol] | promoted the growth of Hafnia alvei | 0.169 ± 0.026 | 0.169±0.026 | 217 ± 34 | 
2 | O=C[C@@H](O)[C@H](O)[C@H](O)CO [Single-formula experimental group [2], Arabinose] | promoted the growth of Hafnia alvei | 0.176 ± 0.038 |  | 226 ± 49 | 0.176±0.038
